Results: BindingDB's records for doi:10.1021/jm050060l (University of Perugia Via Del Liceo, 2021)
pIC50, pKi: −log10 of the molar value.

Tests used:
[1] = target: T1, Neuropeptide Y receptor type 1 (Homo sapiens, UniProt P25929); assay: Displacement of 125I-PYY from human neuropeptide Y Y1 receptor expressed in human SK-N-MC cell membrane assessed as inhibition constant incubated for 1 hrs by competitive binding assay
T1 sequence (P25929 whole entry): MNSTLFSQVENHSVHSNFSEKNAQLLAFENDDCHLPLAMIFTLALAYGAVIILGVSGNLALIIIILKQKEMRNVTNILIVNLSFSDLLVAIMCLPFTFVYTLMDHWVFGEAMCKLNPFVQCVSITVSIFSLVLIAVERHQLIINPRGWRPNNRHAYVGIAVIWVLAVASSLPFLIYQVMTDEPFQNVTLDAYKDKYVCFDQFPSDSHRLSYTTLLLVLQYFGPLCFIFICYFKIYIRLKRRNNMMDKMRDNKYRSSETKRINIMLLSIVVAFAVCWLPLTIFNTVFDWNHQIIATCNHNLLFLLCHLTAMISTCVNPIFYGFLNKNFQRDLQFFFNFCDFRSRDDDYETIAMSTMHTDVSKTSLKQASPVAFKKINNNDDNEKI

[2] = target: T2, C-X-C chemokine receptor type 2 (Homo sapiens, UniProt P25025); assay: Antagonist activity at CXCR2 (unknown origin)
T2 sequence (P25025 whole entry): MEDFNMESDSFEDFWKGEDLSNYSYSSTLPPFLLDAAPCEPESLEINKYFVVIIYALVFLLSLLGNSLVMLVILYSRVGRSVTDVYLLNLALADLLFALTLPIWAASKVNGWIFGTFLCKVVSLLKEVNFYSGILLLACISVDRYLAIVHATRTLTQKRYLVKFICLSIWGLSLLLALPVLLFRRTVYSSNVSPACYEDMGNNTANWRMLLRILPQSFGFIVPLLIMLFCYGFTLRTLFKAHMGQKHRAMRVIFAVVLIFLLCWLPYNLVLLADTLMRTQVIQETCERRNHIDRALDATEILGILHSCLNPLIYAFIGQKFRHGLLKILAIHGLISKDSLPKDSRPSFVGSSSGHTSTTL

[3] = target: T3, Bifunctional epoxide hydrolase 2 (Homo sapiens, UniProt P34913); assay: Inhibition of recombinant soluble epoxide hydrolase (unknown origin) using [3H]1,3-diphenyl-trans-propene oxide as substrate assessed as inhibition constant incubated for 5 mins
T3 sequence (P34913 whole entry): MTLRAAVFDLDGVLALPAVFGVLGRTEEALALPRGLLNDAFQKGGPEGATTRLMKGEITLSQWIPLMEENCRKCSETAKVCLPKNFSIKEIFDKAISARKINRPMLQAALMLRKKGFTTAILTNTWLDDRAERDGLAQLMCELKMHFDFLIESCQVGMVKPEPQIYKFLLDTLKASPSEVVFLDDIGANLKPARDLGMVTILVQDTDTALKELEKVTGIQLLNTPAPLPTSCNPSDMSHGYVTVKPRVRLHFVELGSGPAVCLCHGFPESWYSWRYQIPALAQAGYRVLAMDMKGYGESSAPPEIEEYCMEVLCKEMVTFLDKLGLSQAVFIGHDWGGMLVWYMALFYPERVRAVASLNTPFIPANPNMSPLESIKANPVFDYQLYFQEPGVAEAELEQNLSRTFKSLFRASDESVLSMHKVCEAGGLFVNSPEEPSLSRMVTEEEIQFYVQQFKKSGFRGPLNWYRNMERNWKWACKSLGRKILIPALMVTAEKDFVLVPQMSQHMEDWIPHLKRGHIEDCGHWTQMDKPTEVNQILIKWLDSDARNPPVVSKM

| pKi [1] | Compound | also measured |
| --- | --- | --- |
| 8.48 | COC(=O)C1=C(C)NC(C)=C(C(=O)OC)C1c1cccc(NC(=O)NCCCN2CCC(c3cccc(OC)c3)CC2)c1 | – |
| 7.68 | COC(=O)C1=CNC(C)=C(C(=O)OC)C1c1cccc(Nc2c(NCCCN3CCC(c4cccc(OC)c4)CC3)c(=O)c2=O)c1 (stereo unspecified) | – |

Continued, compound first:

| Compound | pKi [1] | also measured |
| --- | --- | --- |
| COC(=O)C1=CNC(C)=C(C(=O)OC)C1c1cccc(N/C(=N/C#N)NCCCN2CCC(c3cccc(OC)c3)CC2)c1 (stereo unspecified) | 8.29 | – |
| COC(=O)C1=CNC(C)=C(C(=O)OC)C1c1cccc(Nc2nnc(CN3CCC(c4cccc(OC)c4)CC3)o2)c1 (stereo unspecified) | 7.00 | – |
| CN(C)C(=O)c1cccc(Nc2c(Nc3ccccc3)c(=O)c2=O)c1O [3-(3,4-dioxo-2-(phenylamino)cyclobut-1-enylamino)-2-hydroxy-N,N-dimethylbenzamide] | – | pIC50 [2]: 8.70 |
| CCCCCCCCCCCCNC(=O)NC1CCCCC1 [US8815951, 297] | – | pKi [3]: 8.15 |
